Assay results published in patent US20130158112A1, “COMPOSITIONS AND METHODS FOR INHIBITING BETA AMYLOID SECRETION” (priority 2011, published 2013).
Values joined by “and” are separate entries in the source; they are usually repeats but may differ in a detail not shown here. Identical values can stand only once. Like-named read-outs stand apart in the source and are kept apart here.

Legend:
[1] = tested on: cerebral Aβ levels; test: In vivo iv administration and cerebral Aβ assay; set-up: species or system mouse; conditions: APP/PS1 transgenic mice, iv 100 to 125 mg/kg single dose, 6 h
Protocol: Transgenic mice expressing humanized mutant versions of APP and presenilin 1 (APPswe, PSEN1dE9) on the C57BL/6 genetic background were obtained from Jackson Laboratories (strain no. 5864) and bred to wild type C57BL/6 mice in order to obtain ˜50% transgenic that were used in these studies. These mice develop Aβ senile plaques by 6 months of age. To prepare the drug stock, 17.5 mg of compound 48 was dissolved in 40 μL of DMSO, which was mixed sequentially with 110 μL of Cremophor EL (Sigma) and 900 μL of sterile saline. Two month old female transgenic mice weighing 20-25 g were anesthetized with ketamine/xylazine and injected iv via the retroorbital plexus with vehicle control or with 2.5 mg of compound 48 in 150 μL of the drug stock (yielding a dose of ˜100 to 125 mg/kg). Six h later, the mice were euthanized by CO2 inhalation, the brains were removed, and the cerebellum discarded. One brain hemisphere was homogenized for 45 s on ice using a tissue grinder in 1 mL of solution containing 5 M guanadine HCl, 50 mM Tris (final pH adjusted to 8.3), and 5% protease inhibitor cocktail. Any debris was removed by centrifugation for 10 min at 2000 g. The supernatant was diluted 1:10 in 20% casein blocker in PBS with 5% protease inhibitor cocktail. […] The protein concentration of the brain homogenate was determined with the BCA assay, and the total Aβ levels were normalized to brain protein levels. […]

[2] = tested on: THLE-3 human hepatoma cells; test: Drug activity persistence after incubation with THLE-3 hepatoma cells; format: in vitro ADME; conditions: for inhibition at 10 µM: Homo sapiens, THLE3, 24 h
Protocol: (§1) H4βAPP695 wt cells, a human […] cell line stably transfected with a wtβAPP695 expression vector construct under the control of a CMV promoter (kindly provided by Dr. Chris Eckman from Mayo Clinic, Florida) were cultured as previously described. Twenty-four hours before drug treatment, the media was replaced with serum-free media. Cells were then incubated with drugs (dissolved in DMSO) or vehicle for 24 h for collection of conditioned media and cell lysates. For the PKC inhibitors experiment, three inhibitors were treated 30 min prior to drug challenge. Primary cortical neurons were prepared from embryonic day 18 APP and presenilin 1 (APPswe, PSEN1dE9) transgenic mice on the C57BL/6 genetic background (Jackson Laboratories, strain no. 5864) as previously described. THLE-3 human hepatoma cells (from ATCC) were plated in 24-well plates that were precoated with 10 μg/mL bovine serum albumin, 10 μg/mL fibronectin, and 30 μg/mL bovine type I collagen. The cells were grown in BEGM media (Clonetics) until confluent and treated with drugs at 20 μM for 24 h. This conditioned media was harvested, diluted 1:1 in serum-free medium, and incubated with H4βAPP695 wt cells for 24 h prior to analysis of secreted Aβ, which was compared to the effect of 10 μM drug treatments without prior incubation with the THLE-3 cells. Caco-2 cells (ATCC) were plated in 12-well plates with Transwell inserts (Costar) at 70000 cells per well and grown for 21 days. The media volume of the apical and basal chambers was 0.5 and 1.5 mL, respectively. Transepithelial resistance was measured in each well and found to be >160 Ω/cm^2. Drugs at 40 μM and 20 μg/mL of lucifer yellow were added in serum-free medium to the apical chamber. Four hours later, the basal chamber media was harvested and used to measure lucifer yellow fluorescence to confirm monolayer integrity as well as for treatment of H4βAPP695 wt cells for 24 h prior to analysis of secreted Aβ, which was compared to the effect of direct addition of 10 μM of the corresponding drug.
To screen for resistance to metabolism, 1 and eight noncytotoxic analogues with >50% Aβ reducing activity (compounds 27, 29, 48, 52, 53, 65, 73, and 76) were incubated at 20 μM for 24 h with or without THLE-3 human hepatoma cells.

[3] = tested on: Caco-2 cells; test: Epithelial transcellular transport of drug activity through Caco-2 monolayers; format: in vitro ADME
Protocol: as §1
Monolayer integrity was confirmed by high levels of transcellular electrical resistance (>160 ohms/cm^2) and by transcellular impermeability to the fluorescent dye lucifer yellow. […] The concentration of each compound added to the upper chamber would lead to 10 μM in the lower chamber if equilibration was complete, and thus the activity of the lower chamber media was compared to the activity of 10 μM drug added directly to the H4βAPP695 wt cells. […] Compound 1 crossed the monolayer and the bottom chamber media led to a 27% reduction in Aβ production, yielding 38% of the theoretical activity. The compound with the most activity in the lower chamber was compound 48, which decreased Aβ production by 50%, with 71% of its theoretical activity. […] On the basis of the combined activity data from these last two studies, compound 48 was selected as the lead drug for in vivo study.

[4] = tested on: Aβ secretion; test: Secreted total Aβ ELISA in conditioned media of H4βAPP695 wt cells; format: cell-based, human
How it was run: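 H4 […] cells stably expressing wild-type βAPP695 (CMV promoter), serum-starved 24 h, then exposed to drug in DMSO or vehicle for 24 h before Aβ in conditioned media was measured. Primary cortical neurons came from E18 APPswe/PSEN1dE9 mice on C57BL/6 background.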

[5] = tested on: H4βAPP695 wt cells; test: Cytotoxicity by total cell protein content (BCA) of H4βAPP695 wt cells; conditions: cytotoxicity
Protocol: Cells were washed with cold phosphate buffered saline (PBS) and lysed on ice by vigorous mixing over 15 min with RIPA buffer containing 50 mM Tris-HCl (pH 8.0), 150 mM sodium chloride, 1% NP-40, 0.5% sodium deoxycholate, and 0.1% SDS, supplemented with 10% protease inhibitor cocktail and 2 mM PMSF. After centrifugation at 14000 g for 30 min to remove nuclei and other debris at 4° C., the protein content of the supernatants was measured using the BCA assay kit (Pierce).
The initial screen was performed in 96-well plates with drugs distributed by the hanging drop method yielding estimated drug levels of 10-25 μM. Total Aβ levels in the 24 h conditioned media were measured by a sandwich ELISA assay, and cytotoxicity was assessed by methylene blue staining of the cells in the wells, as previously described.

[6] = Body weight after one-week oral feeding; format: in vivo, mouse; conditions: 0.31-2.5 g/kg in chow diet
Protocol: (§2) In this Example, mutant APP/PS1 transgenic mice were obtained from Dr. Mathias Jucker (R Radde et al. 2006, EMBO Reports 7:940-946). […] The drug was milled into the chow diet (Harlan Teklad #2018) at 4 doses: 0.31, 0.62, 1.25, and 2.5 g/kg. Assuming each mouse eats 4 g of per day, the lowest dose should yield 1.24 mg intake per day, or about 75 mg/kg body weight. Six-week old female transgenic mice were fed ad librium with the chow diet or the diet supplemented with the four drug doses. […] At the end of the study, brains were isolated, and half brains were homogenized in a buffer containing guanidine hydrochloride and SDS. This extract was diluted and used in assays for total protein and an ELISA for Abeta levels. […] There was not a dose response in this study, as the effect appeared to plateau out even at the lowest dose of the drug, 0.31 g/kg diet. This oral diet study supported a prior finding using 3 oral gavages of this drug at an estimated dose of 200 mg/kg body weight delivered in Cremaphor over a 1.5 day period in which we observed a 30% decrease in cerebral Aβ levels (data not shown).

[7] = tested on: cerebral Aβ levels; test: Oral treatment and cerebral Aβ ELISA in mutant APP/PS1 transgenic mice; format: in vivo, mouse; conditions: 3 oral gavages, estimated 200 mg/kg in Cremaphor over 1.5 day
Protocol: as §2

**Q.** For Cc1cccc(CSCCNC(=O)c2c(Cl)cccc2Cl)c1 [Compound 48, 2,6-Dichloro-N-[2-(3-methyl-benzylsulfanyl)-ethyl]-benzamide], which “reduction in cerebral Aβ levels” value [1] is on record?
**A.** 39.6%

**Q.** What about the inhibition at 10 µM ([2]; 10 μM on H4 cells, without preincubation with hepatoma cells, read-out: hepatoma incubation No total Aβ (% decrease)) of the same compound?
**A.** 70.5%

**Q.** What about the inhibition at 10 µM ([2]; 20 μM preincubated 24 h with THLE-3 hepatoma cells, diluted to 10 μM on H4 cells, read-out: hepatoma incubation Yes total Aβ (% decrease)) of the same compound?
**A.** 38%

**Q.** And the “% remaining Activity” value ([2]; after 24 h incubation with hepatoma cells)?
**A.** 54%

**Q.** And the “% theoretical activity” value ([3]; % of activity passing through Caco-2 monolayer)?
**A.** 71% and 70.8%

**Q.** And the inhibition at 10 µM ([3]; Homo sapiens, Caco-2, 10 μM drug alone added directly to H4βAPP695 wt cells, read-out: transcellular transport No total Aβ (% decrease))?
**A.** 70.5%

**Q.** And the inhibition at up to 10 µM ([3]; Homo sapiens, Caco-2, 4 h, lower chamber media after 4 h on Caco-2 monolayer, 10 μM if in equilibrium, read-out: transcellular transport Yes total Aβ (% decrease))?
**A.** 50%

**Q.** What about the inhibition at 30 µM ([4]; Homo sapiens, 24 h, 30 μM, H4βAPP695 wt cells, 24 h, read-out: Total Aβ (% decrease) 30 μM Mean) of the same compound?
**A.** 85.8%

**Q.** And the “Aβ secretion inhibiting activity (structure activity summary)” value ([4]; in words)?
**A.** good activity

**Q.** And the melting point?
**A.** 56 to 57 °C

**Q.** And the “Cell protein (% decrease) 10 μM Mean” value ([5]; 10 μM)?
**A.** 11.7%

**Q.** And the “Cell protein (% decrease) 30 μM Mean” value ([5]; 30 μM)?
**A.** 16.6%

**Q.** What about the “effect on body weights” value [6] of the same compound?
**A.** no significant effect

**Q.** What about the “decrease in cerebral Aβ levels, oral gavage” value [7] of the same compound?
**A.** 30%
